Data taken from EP1304101A1, “Composition and method for use of pyridinium derivatives in cosmetic and therapeutic applications” (Torrent Pharmaceuticals Ltd, priority 2001, dated 2003).
Values joined by “and” are separate entries in the source; they are usually repeats but may differ in a detail not shown here. Equal entries are not always repeated.

Legend:
AGE-BSA = target: T1, AGE-BSA (Bos taurus, UniProt P02769); assay: In-vitro AGE breaking activity by ELISA (16 weeks AGE-BSA incubated with test compound); assay type: biochemical, bovine; conditions: for % Breakage: 37°C, 24 hours; for AGE breaking activity compared to PTB / potency (AGE breaking activity compared to PTB): comparison in words based on Table 2
T1 construct: Bovine serum albumin (fraction V) (BSA); from tissue
Method: AGE breaking activity has been confirmed by the screening procedure as mentioned below: • Materials: • Bovine serum albumin (fraction V) (BSA) • Glucose, analytical grade • Phosphate buffered saline (PBS) • Equipment: • Microplate ELISA Reader - Spectramax Plus (Molecular Devices, USA) • Microplate washer, (Bio -Tec Instruments, USA) • pH meter • Methods of experiment: Elisa (Enzyme Linked Immunosorbent Assay) 160 mg/ml of protein, bovine serum albumin, BSA and 1.6M glucose sugar were dissolved in phosphate buffered saline, PBS. Sodium azide was added at 0.02% concentration as a preservative. The solution was filtered asceptically through a 0.22 µM filter and kept for aging at 37°C for 16 weeks. After 16 weeks the solution was dialyzed against PBS, aliquoted and stored at - 20°C.
To determine the AGE breaking activity, 10 µg/ml of the 16 weeks AGE-BSA was incubated with different concentrations of the test compounds at 37°C for 24 hours and AGE breaking activity of the test compounds by ELISA was determined.
Different concentrations of 16 weeks AGE-BSA were coated on a microtitre plate as standard. Each concentration is coated in triplicates. • 2. The test samples were coated on microtitre plate at a concentration of 5 ng. to 20 ng per well in triplicates. • 3. The plate was incubated at 37°C for one hour. • 4. After incubation the plate was washed with PBST (PBS with 0.05% Tween 20). • 5. Blocking with 5% skimmed milk in PBS at 37°C for one hour was done. • 6. The plate was washed with PBST. • 7. Primary antibody against AGE-BSA was added and the plate is incubated at 37°C for one hour. • 8. The plate was washed with PBST • 9. Secondary antibody anti rabbit HRPO (Horse-Radish Per Oxidase) conjugate was added and the plate is incubated at 37°C for one hour. • 10. The plate was washed with PBST. • 11. Colour development with OPD (orthophenylenediamine dihydrochloride) and hydrogen peroxide was done. • 12. OD (optical density) at (450nm reading - 620nm reading) was measured after incubation at 37°C for 15 minutes with Microplate ELISA Reader.
The breaker activity of the compounds were determined by the following formula: % Breaker activity =(OD450-620 Control - OD450-620 Test)/(OD450-620 Control)x 100 [formula] OD450-620Control= Absorbance of 20ng AGE-BSA after incubation at 37°C for 24 hours without test compound OD450-620Test= Absorbance of 20ng AGE-BSA after incubation at 37°C for 24 hours with required concentration of test compound

[1] = Free radical scavenging activity on ABTS radical cation (absorbance at 730nm); assay type: biochemical
Method: This method measures the relative ability of free radical scavenging substances to scavenge the ABTS ^.+ i.e. 2,2-Azino-bis-(3-ethyl benzo thiazoline-6-sulfonate) radical cation as compared to a standard amount of standard or free radical scavengers antioxidants. Incubation of ABTS with Peroxidase (metmyoglobin) and hydrogen peroxide results in the production of radical cation ABTS^.+ . This species is blue- green in colour and can be detected at 730nm. Antioxidants or free radical scavengers in the added sample that causes suppression of the color to a degree that is proportional to their concentration.
• A. Phosphate Citrate Buffer (pH 5.0): 48.5ml of 0.1M citric acid with sufficient 0.2M disodium hydrogen phosphate to produce 100 ml. • B. Phosphate Buffer Saline (PBS): Dissolve 40.0g of NaCl, 1.0g of KCI, 1.0g of KH2PO4 and 3.05g of Na2HPO4 in 1 litre milli-Q water. Dilute 200ml of above solution to 1 litre with milli-Q water (pH 7.4-7.6). • C. 3µM stock solution of Peroxidase was prepared in phosphate buffer saline pH 7.4(PBS). • D. 1.08 mM stock solution of Hydrogen peroxide was prepared in phosphate buffer saline pH 7.4 (PBS).
1 tablet (10mg) was dissolved in phosphate citrate buffer (pH 5.0).
5.0ml of ABTS stock solution was diluted with PBS to 20 ml.
320 µg of the enzyme was dissolved in 2.5 ml of PBS.
12µl of Hydrogen Peroxide (30%w/v) was diluted to 100ml with PBS.
0.1mM of stock solution of the drug was prepared which was serially diluted in PBS to get solutions of different concentrations.
To 18ml of ABTS stock solution, 100µl of Horseradish Peroxidase stock solution was added.
As soon as 1.5 ml of hydrogen peroxide solution was added to the above solution, blue-green colour of the ABTS radicals appeared. This solution was incubated at 30°C for 30 min.
980µl of ABTS radical stock solution was added to an eppendorf tube. To it was added 100µl of various PBS solution.
980µl of ABTS radical stock solutions were added to different eppendorf tubes. To it were added 100µl of various concentrations of drug solution.
The absorbance of control and test samples was recorded immediately at 730nm taking PBS as blank.
Calculation: The percent antioxidant activity was calculated according to the formula: % Antioxidant activity = [O.D of test sample/O.D of control*100]-100.

Maillard reaction = assay: AGE inhibiting activity, Method I (BSA + ribose, fluorescence); assay type: biochemical; conditions: 10mM; 37° C for 7 days
Method: The following method was used to determine the inhibitory effect of the test compound on Maillard reaction in-vitro.
Addition of compound was done in aseptic conditions. Sodium azide (0.02%) was also added in this solution in order to prevent microbial growth. A separate tube containing BSA, ribose and sodium azide in the same concentration and buffer as above, but without any test compound, was also incubated as positive control.
After incubation at 37° C for 7 days, 40 micro litre sample from each tube was removed and diluted with PBS to have final concentration of BSA at 1mg/ml. The fluorescence of all the samples was measured at Excitation Maximum of 355nM and the Emission Maximum of 460nM using f-MAX Fluorimeter (Molecular Device, USA). In order to study the effect of test compound on fluorescence, freshly prepared compound solution was mixed with previously incubated positive control (i.e. BSA + ribose), so as to achieve same concentration of all the components as that of test samples.
The percent inhibition of test compound was measured as follows: % Inhibition =(F4 - F3)/(F4)X 100 [formula] Where F3 = Fluorescence of BSA + ribose + compound,F4 is fluorescence of incubated (BSA + ribose) + freshly added test compound.

T1 sequence (P02769 25-607): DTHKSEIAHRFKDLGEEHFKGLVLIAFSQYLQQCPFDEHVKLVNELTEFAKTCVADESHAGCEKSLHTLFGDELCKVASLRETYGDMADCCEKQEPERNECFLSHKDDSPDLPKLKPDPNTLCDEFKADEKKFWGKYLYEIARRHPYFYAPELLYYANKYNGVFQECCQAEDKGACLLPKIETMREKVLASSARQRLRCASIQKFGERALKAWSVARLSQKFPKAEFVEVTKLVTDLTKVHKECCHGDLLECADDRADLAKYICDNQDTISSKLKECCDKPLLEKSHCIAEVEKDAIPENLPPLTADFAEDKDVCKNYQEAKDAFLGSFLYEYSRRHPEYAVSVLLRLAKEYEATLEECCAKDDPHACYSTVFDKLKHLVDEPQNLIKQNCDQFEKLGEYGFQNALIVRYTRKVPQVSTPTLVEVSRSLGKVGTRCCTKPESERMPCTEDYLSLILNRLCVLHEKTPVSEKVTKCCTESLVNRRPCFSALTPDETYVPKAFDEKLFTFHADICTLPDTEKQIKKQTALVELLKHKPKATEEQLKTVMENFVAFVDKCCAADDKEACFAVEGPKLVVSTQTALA

SMILES	% Breakage (AGE-BSA; 10 mM test compound) [%]	AGE breaking activity compared to PTB (AGE-BSA)	Relative Free Radical Scavenging Activity(%) on ABTS ([1]; 11.5µM) [%]	Relative Free Radical Scavenging Activity(%) on ABTS ([1]; 23.0µM) [%]	Relative Free Radical Scavenging Activity(%) on ABTS ([1]; 46.0µM) [%]	Relative Free Radical Scavenging Activity(%) on ABTS ([1]; 92.5µM) [%]	Relative Free Radical Scavenging Activity(%) on ABTS ([1]; 925µM) [%]	also measured
CCOC(=O)C[n+]1cccc(C(=O)NNc2ccccn2)c1.[Br-] [Compound 4, 1-(2-ethoxy-2-oxoethyl) -3-(2-(2-pyridyl) hydrazinocarbonyl) pyridinium bromide]	30	superior	58.2	64.3	69.3	98.6	100	
CCOC(=O)C[n+]1cccc(C(=O)NCCOC(=O)c2ccccc2)c1.[Br-] [Compound 7, 1-(2-ethoxy-2-oxoethyl) -3-(2-(benzoyloxy)ethylaminocarbonyl) pyridinium bromide]								% Breakage (AGE-BSA; 20 mM test compound): 36%; %Inhibition (Day 7) (Maillard reaction): 51%
COCCOC(=O)c1ccc[n+](CC(=O)c2ccc(Cl)cc2Cl)c1 [Compound 22, 1-(2-(2', 4'-dichlorophenyl)-2-oxoethyl)-3-(2(methoxy)ethyloxycarbonyl) pyridinium bromide]	13		27.9	50.9	69.3	79.7	100	% Breakage (AGE-BSA; 25 mM test compound): 41%
COCCNC(=O)c1ccc[n+](CC(=O)c2ccc(Cl)cc2Cl)c1.[Br-] [Compound 38, 1-(2', 4'-dichlorophenyl-2-oxoethyl)-3-(2-methoxyethylaminocarbonyl)-pyridinium bromide]			47.2	54.8	71.0	89.5	100	% Breakage (AGE-BSA; 5 mM test compound): 17.66%
CS(=O)(=O)NNC(=O)c1ccc[n+](CC(=O)c2cccs2)c1.[Cl-] [Compound 45, 1-(2-thien-2'-yl-2-oxoethyl)-3-(methanesulfonyl hydrazinocarbonyl) pyridinium chloride]	17.53		53.9	56.2	78.7	99.8	100	
CC(C)S(=O)(=O)NNC(=O)c1ccc[n+](CC(=O)c2cccs2)c1 [Compound 50, 1-(2-thien-2'-yl-2-oxoethyl)-3-(isopropylsulfonyl hydrazinocarbonyl) pyridinium bromide]	31.45	superior	3.30	23.06	54.95	89.31		
CS(=O)(=O)NNC(=O)c1ccc[n+](CC(=O)N2CCC(Cc3ccccc3)CC2)c1.[Cl-] [Compound 51, 1-(2-(4-benzylpiperidin-1-yl)-2-oxoethyl)-3-(methanesulfonyl hydrazinocarbonyl) pyridinium chloride]	20.94		0.00	21.64	52.82	83.94		
CS(=O)(=O)NNC(=O)c1ccc[n+](CC(=O)c2ccc(Cl)s2)c1.[Br-] [Compound 55, 1-(2-(5-chlorothien-2-yl)-2-oxoethyl)-3-(methanesulfonyl hydrazinocarbonyl) pyridinium bromide]	40.85		46.47	84.97	99.50	99.93		
O=C(NNC(=O)c1ccc[n+](CC(=O)c2cc([N+](=O)[O-])cs2)c1)c1ccc[n+](CC(=O)c2cc([N+](=O)[O-])cs2)c1 [Compound 56, N, N'-bis [3-carbonyl-1-(2-(4-nitrothien-2-yl)-2-oxoethyl)pyridinium] hydrazine dichloride]	75.92		43.0			97.7	100	Relative Free Radical Scavenging Activity(%) on ABTS ([1]; 23 µM): 57.2%; Relative Free Radical Scavenging Activity(%) on ABTS ([1]; 46 µM): 71.6%
CS(=O)(=O)NNC(=O)c1ccc[n+](CC(=O)c2cc([N+](=O)[O-])cs2)c1.[Br-] [Compound 64, 1-(2-(4-nitrothien-2-yl)-2-oxoethyl)-3-(methanesulfonyl hydrazinocarbonyl) pyridinium bromide]	60.94	superior					100	potency (AGE breaking activity compared to PTB) (AGE-BSA): significantly much higher; Relative Free Radical Scavenging Activity(%) on ABTS ([1]; 11.5µM, listed as Compound No.64, 11.5 µM): 41.8% and 26.01%; Relative Free Radical Scavenging Activity(%) on ABTS ([1]; 23.0µM, listed as Compound No.64, 23 µM): 55.7% and 57.39%; Relative Free Radical Scavenging Activity(%) on ABTS ([1]; 46.0µM, listed as Compound No.64, 46 µM): 72.2% and 99.30%; Relative Free Radical Scavenging Activity(%) on ABTS ([1]; 92.5µM, listed as Compound No.64, 92.5 µM): 99.0% and 99.62%
O=C(C[n+]1cccc(C(=O)NNc2ccccc2)c1)Nc1ccccc1.[Cl-] [Compound 65, 1-(2-phenylamino-2-oxoethyl)-3-(phenyl hydrazinocarbonyl) pyridinium chloride]		superior	27.67	59.20	94.14	100.00		% Breakage (AGE-BSA; 2.5 mM test compound): 68.35%; potency (AGE breaking activity compared to PTB) (AGE-BSA): significantly much higher
CS(=O)(=O)NNC(=O)c1ccc[n+](CC(=O)c2ccc([N+](=O)[O-])s2)c1 [Compound 67, 1-2-(5-nitro-thien-2-yl)-2-oxoethyl)-3-(methanesulfonyl hydrazino carbonyl) pyridinium chloride]		superior	13.11	50.70	97.46	99.43		% Breakage (AGE-BSA; 1 mM test compound): 42.01%; potency (AGE breaking activity compared to PTB) (AGE-BSA): significantly much higher
O=C(NNS(=O)(=O)C(F)(F)F)c1ccc[n+](CC(=O)c2cccs2)c1 [Compound 68, 1-(2-thien-2'-yl-2-oxoethyl)-3-(trifluoromethanesulfonyl hydrazinocarbonyl) - pyridinium bromide]	92.64	superior	38.47	43.54	89.32	95.07		potency (AGE breaking activity compared to PTB) (AGE-BSA): significantly much higher
O=C(NCCO)c1ccc[n+](CC(=O)c2cccs2)c1 [Compound 90, 1-(2-Thien-2'-yl-2-oxoethyl)-3-((2-hydroxyethyl)aminocarbonyl) pyridinium bromide]	50		47.8	58.8	78.2	99.5	100	
CCCCOC(=O)c1ccc[n+](CC(=O)Nc2ccccc2)c1.[Cl-] [Compound 93, 1-(2- Phenylamino-2-oxoethyl) -3-(n-butyloxycarbonyl) pyridinium chloride]	57		8.5	8.6	9.6	11.4	25.0	
